Assay results from patent publication US20260262643A1, “HERBICIDAL BENZOXAZINES” (FMC CORPORATION, priority 2022, published 2026).
Read-outs that look alike come from different tables or passages of the source.

What was measured:
sedge, umbrella = experiment: Test B flooded paddy test; type: in vivo, Cyperus difformis; conditions: Cyperus difformis, 312 h; 250 g ai/ha, Flood, 13 days, 0 to 100 scale (0 no effect, 100 complete control); read-out: Plant response rating, Sedge, Umbrella
In short: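 Plants at the 2-leaf stage were flooded to 3 cm above the soil, and test compounds were applied directly into the paddy water, with that depth held throughout. After 13 days in a greenhouse, injury was rated visually against untreated controls on a 0–100 scale (100 = complete control).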

soybean [1] = experiment: Test A preemergence; type: in vivo, Glycine max; conditions: Glycine max, pre-emergence, 240 h, read-out: Plant response rating, Soybean; for plant injury at 125 g/ha: 125 g ai/ha; for plant injury at 500 g/ha: 500 g ai/ha
In short: (§1)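 Seeds in loam–sand blend received a directed preemergence soil spray of compound in non-phytotoxic solvent with surfactant; postemergence plants (2–10 cm, one- to two-leaf stage) were sprayed with the same formulation. After 10 days in greenhouse, injury was rated visually versus untreated controls, 0 (no effect) to 100 (complete control).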

corn = experiment: Test A preemergence; type: in vivo, Zea mays; conditions: Zea mays, pre-emergence, 240 h; for Corn plant response rating (crop injury, 0 = no effect, 100 = complete kill) at 125 g/ha: 125 g ai/ha; for Corn plant response rating (crop injury, 0 = no effect, 100 = complete kill) at 500 g/ha: 500 g ai/ha
In short: as §1

pigweed, palmer = experiment: Test A preemergence; type: in vivo, Amaranthus palmeri; conditions: Amaranthus palmeri, pre-emergence, 240 h, read-out: Plant response rating, Pigweed, Palmer; for pest or weed control at 125 g/ha: 125 g ai/ha; for pest or weed control at 500 g/ha: 500 g ai/ha
In short: as §1

galium = experiment: Test A postemergence; type: in vivo, Galium aparine; conditions: Galium, post-emergence, 240 h, postemergence, 10 days, 0 to 100 scale (0 no effect, 100 complete control); for pest or weed control at 125 g/ha: 125 g ai/ha; for pest or weed control at 500 g/ha: 500 g ai/ha
In short: as §1

ragweed [2] = experiment: Test A preemergence; type: in vivo, Ambrosia artemisiifolia; conditions: Ambrosia artemisiifolia, pre-emergence, 240 h, read-out: Plant response rating, Ragweed; for pest or weed control at 125 g/ha: 125 g ai/ha; for pest or weed control at 500 g/ha: 500 g ai/ha
In short: as §1

wheat [3] = experiment: Test A postemergence; type: in vivo, Triticum aestivum; conditions: Triticum aestivum, post-emergence, 240 h, postemergence, 10 days, 0 to 100 scale (0 no effect, 100 complete control); for plant injury at 500 g/ha: 500 g ai/ha, visual injury, read-out: Plant response rating, Wheat
In short: as §1

wheat [4] = experiment: Test A preemergence; type: in vivo, Triticum aestivum; conditions: Triticum aestivum, pre-emergence, 240 h, read-out: Plant response rating, Wheat; for plant injury at 125 g/ha: 125 g ai/ha; for plant injury at 500 g/ha: 500 g ai/ha
In short: as §1

oat, wild = experiment: Test A postemergence; type: in vivo, Avena fatua; conditions: Avena fatua, post-emergence, 240 h, postemergence, 10 days, 0 to 100 scale (0 no effect, 100 complete control); for pest or weed control at 500 g/ha: 500 g ai/ha, visual injury, read-out: Plant response rating, Oat, Wild
In short: as §1

soybean [5] = experiment: Test A postemergence; type: in vivo, Glycine max; conditions: Glycine max, post-emergence, 240 h, postemergence, 10 days, 0 to 100 scale (0 no effect, 100 complete control); for plant injury at 500 g/ha: 500 g ai/ha, visual injury, read-out: Plant response rating, Soybean
In short: as §1

ryegrass, Italian = experiment: Test A postemergence; type: in vivo, Lolium multiflorum; conditions: Lolium multiflorum, post-emergence, 240 h, postemergence, 10 days, 0 to 100 scale (0 no effect, 100 complete control); for pest or weed control at 500 g/ha: 500 g ai/ha, visual injury, read-out: Plant response rating, Ryegrass, Italian
In short: as §1

ragweed [6] = experiment: Test A postemergence; type: in vivo, Ambrosia artemisiifolia; conditions: Ambrosia artemisiifolia, post-emergence, 240 h, postemergence, 10 days, 0 to 100 scale (0 no effect, 100 complete control); for pest or weed control at 500 g/ha: 500 g ai/ha, visual injury, read-out: Plant response rating, Ragweed
In short: as §1

goosegrass = experiment: Test A postemergence; type: in vivo, Eleusine indica; conditions: Eleusine indica, post-emergence, 240 h, postemergence, 10 days, 0 to 100 scale (0 no effect, 100 complete control); for pest or weed control at 125 g/ha: 125 g ai/ha; for pest or weed control at 500 g/ha: 500 g ai/ha
In short: as §1

foxtail, giant = experiment: Test A postemergence; type: in vivo, Setaria faberi; conditions: Setaria faberi, post-emergence, 240 h, postemergence, 10 days, 0 to 100 scale (0 no effect, 100 complete control); for pest or weed control at 125 g/ha: 125 g ai/ha; for pest or weed control at 500 g/ha: 500 g ai/ha
In short: as §1

[7] = visual injury after 10 days, 0 to 100 scale, 0 is no effect, 100 is complete control
[8] = visual injury, read-out: Plant response rating, Galium
[9] = visual injury, read-out: Plant response rating, Goosegrass
[10] = visual injury, read-out: Plant response rating, Foxtail, Giant
[11] = 0 to 100 scale (0 no effect, 100 complete control), 10 days

| SMILES | pest or weed control at 250 g/ha (sedge, umbrella) [%] | plant injury at 125 g/ha (soybean [1]; [7]) [%] | Corn plant response rating (crop injury, 0 = no effect, 100 = complete kill) at 125 g/ha (corn; [7]) [%] | pest or weed control at 125 g/ha (pigweed, palmer; [7]) [%] | pest or weed control at 500 g/ha (galium; [8]) [%] | pest or weed control at 125 g/ha (ragweed [2]; [7]) [%] | plant injury at 500 g/ha (wheat [3]) [%] | plant injury at 125 g/ha (wheat [4]; [7]) [%] | pest or weed control at 500 g/ha (oat, wild) [%] | plant injury at 500 g/ha (soybean [5]) [%] | pest or weed control at 500 g/ha (ryegrass, Italian) [%] | pest or weed control at 500 g/ha (ragweed [6]) [%] | pest or weed control at 500 g/ha (goosegrass; [9]) [%] | pest or weed control at 500 g/ha (foxtail, giant; [10]) [%] | other results |
| --- | --- | --- | --- | --- | --- | --- | --- | --- | --- | --- | --- | --- | --- | --- | --- |
| C[C@H]1CN(C(=O)c2cccc(-c3cnn(C)n3)c2)c2cccc(Cl)c2O1 [Compound 127, [(2S)-8-Chloro-2,3-dihydro-2-methyl-4H-1,4-benzoxazin-4-yl][3-(2-methyl-2H-1,2,3-triazol-4-yl)phenyl]methanone] | 0 | 0 | 0 | 40 | 100 | 0 | 20 | 0 | 10 | 100 | 50 | 10 | 70 | 90 | plant injury at 500 g/ha (soybean [1]; [7]): 0%; Corn plant response rating (crop injury, 0 = no effect, 100 = complete kill) at 500 g/ha (corn; [7]): 0%; pest or weed control at 500 g/ha (pigweed, palmer; [7]): 90%; pest or weed control at 125 g/ha (galium; read-out: Galium plant response rating): 60%; pest or weed control at 500 g/ha (ragweed [2]; [7]): 0%; plant injury at 125 g/ha (wheat [3]; 125 g ai/ha, read-out: Wheat plant response rating): 10%; plant injury at 500 g/ha (wheat [4]; [7]): 0%; pest or weed control at 125 g/ha (oat, wild; 125 g ai/ha, read-out: Oat, Wild plant response rating): 0%; plant injury at 125 g/ha (soybean [5]; 125 g ai/ha, read-out: Soybean plant response rating): 100%; pest or weed control at 125 g/ha (ryegrass, Italian; 125 g ai/ha, read-out: Ryegrass, Italian plant response rating): 10%; pest or weed control at 125 g/ha (ragweed [6]; 125 g ai/ha, read-out: Ragweed plant response rating): 0%; pest or weed control at 125 g/ha (goosegrass; read-out: Goosegrass plant response rating): 10%; pest or weed control at 125 g/ha (foxtail, giant; read-out: Foxtail, Giant plant response rating): 50% |
| Cc1ccc(-n2cnc(C(C)(C)C)n2)cc1C(=O)N1C[C@H](C)Oc2c(Cl)cccc21 [Compound 76, [(2S)-8-Chloro-2,3-dihydro-2-methyl-4H-1,4-benzoxazin-4-yl][5-[3-(1,1-dimethylethyl)-1H-1,2,4-triazol-1-yl]-2-methylphenyl]methanone] | 98 | 50 | 40 | 100 | 100 | 30 | 40 | 60 | 90 | 100 | 80 | 60 | 80 | 90 | plant injury at 500 g/ha (soybean [1]; [11]): 100%; Corn plant response rating (crop injury, 0 = no effect, 100 = complete kill) at 500 g/ha (corn; [11]): 50%; pest or weed control at 500 g/ha (pigweed, palmer; [11]): 100%; pest or weed control at 125 g/ha (galium; [8]): 100%; pest or weed control at 500 g/ha (ragweed [2]; [11]): 30%; plant injury at 500 g/ha (wheat [4]; [11]): 90%; pest or weed control at 125 g/ha (goosegrass; [9]): 50%; pest or weed control at 125 g/ha (foxtail, giant; [10]): 90% |
